“Also recorded” adds a separate entry of the source.
What was measured:
[1] = molecular target: T1, ABCG2 (Homo sapiens, UniProt Q9UNQ0); test: JC-1 efflux inhibition dose response, flow cytometry, Ig-MXP3 cells
T1 sequence (Q9UNQ0 1-655): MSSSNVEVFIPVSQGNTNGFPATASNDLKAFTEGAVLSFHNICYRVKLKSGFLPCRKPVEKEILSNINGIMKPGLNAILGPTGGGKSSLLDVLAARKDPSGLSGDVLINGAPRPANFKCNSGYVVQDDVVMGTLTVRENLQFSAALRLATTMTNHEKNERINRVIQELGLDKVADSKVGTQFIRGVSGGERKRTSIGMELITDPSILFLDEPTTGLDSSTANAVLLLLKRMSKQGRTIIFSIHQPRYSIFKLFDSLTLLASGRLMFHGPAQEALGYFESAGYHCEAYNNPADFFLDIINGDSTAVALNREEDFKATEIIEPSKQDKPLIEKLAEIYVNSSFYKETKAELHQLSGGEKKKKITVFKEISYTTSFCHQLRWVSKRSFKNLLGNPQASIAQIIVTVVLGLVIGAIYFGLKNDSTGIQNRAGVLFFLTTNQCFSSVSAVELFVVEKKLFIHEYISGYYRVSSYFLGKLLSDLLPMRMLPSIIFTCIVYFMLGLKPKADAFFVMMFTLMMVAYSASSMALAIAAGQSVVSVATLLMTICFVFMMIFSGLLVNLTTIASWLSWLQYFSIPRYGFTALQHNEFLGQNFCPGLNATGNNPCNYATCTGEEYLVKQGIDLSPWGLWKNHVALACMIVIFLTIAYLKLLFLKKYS
How it was run: (§1)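 Ig-MXP3 (ABCG2) and Jurkat-DNR (ABCB1) cells, run separately, are pre-stained with 1 μM JC-1 and added to compound in PBS; retained dye is read by high-throughput flow cytometry with time-gated analysis.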

[2] = molecular target: T2, ABCB1 / ABCG2 (Homo sapiens, UniProt Q9UNQ0); test: as above; conditions: human, probe JC-1 (1 µM), ~Fold G2 Selective (B1/G2), quotient of average ABCB1 IC50 and average ABCG2 IC50, efflux assay
T2 sequence (Q9UNQ0 1-655): T1 sequence (Q9UNQ0 1-655)
How it was run: as §1

[3] = tested on: ABCB1 over-expressing Jurkat-DNR cells; test: Chemoreversal assay: potentiation of daunorubicin (DNR) killing; type: cell-based; conditions: constant 100 nM DNR, varied inhibitor dose, read-out: CR50 ABCB1
Description: Cells (ABCB1, Jurkat-DNR or ABCG2 Ig-MXP3) are incubated with the test compound (3 order of magnitude concentration range) over a 3-day and 7-day period in the presence of the inhibitor and chemotherapeutic (ABCB1, DNR or ABCG2 MTX), such that a cell concentration of at least 1×10^5 cells/mL is maintained. Cell viability is determined by trypan blue staining and enumeration under light microscopy. […] A chemoreversal index (Chemoreversal 50, CR50) is determined from the viability assessment. Using a similar approach, a direct cytotoxicity index (Toxic Dose 50, TD50) is determined by assessment of cell death of cells grown in media alone.
Cells (ABCB1, Jurkat-DNR or ABCG2 Ig-MXP3) were incubated with the test compound in a 3 order of magnitude concentration range over three and seven day periods in the presence of the inhibitor and chemotherapeutic (ABCB1, 100 nM DNR or ABCG2 30 nM MTX), such that a cell concentration of at least 1×10^5 cells mL^−1 was maintained. Cell viability was determined by trypan blue staining and enumeration under light microscopy. […] A chemoreversal index (Chemoreversal 50, CR50) was determined from the viability assessment. Using a similar approach, a direct cytotoxicity index (Toxic Dose 50, TD50) was determined by assessment of cell death of cells grown in media alone.

[4] = tested on: ABCG2 over-expressing Igrov1/T8 tumors; test: ABCG2 resistant Igrov1/T8 tumor xenograft, combination with topotecan; type: in vivo, CB-17 SCID mice; conditions: for tumor size, combination of TPT and inhibitor: 150 nM TPT + 100 nM SID 88095709 (1) or 500 nM SID 85752814 (7), up to 96 hr
Description: Specific-pathogen-free adult CB-17 female SCID mice (5-6 weeks of age) weighing 20-25 g, are purchased. Briefly, ABCG2 over-expressing Igrov1/T8 cells are injected (5×10^6 cells/mouse). Prior to injection, Igrov1/T8 cells are maintained in topotecan in order to assure continuous expression of ABCG2. Tumors are allowed to grow for 3-4 weeks or until tumor volumes are greater than ˜100 cubic millimeters, at which time they are stratified into treatment groups. Treatment is administered and we observe the size of the tumor and weight of the mouse over a 7 day period. At the end of 7 days, we: 1) sacrifice the animal; 2) measure and weigh the tumor (if present); 3) analyze the histology of the tumor as well as other organs for evidence of toxicity; and 4) measure the expression of ABCG2 receptors on the tumor to determine if in vivo growth has altered ABCG2 expression. In our initial studies, we have generally observed high survival at 4 weeks (>90%) which escalates rapidly with near 100% mortality by 6 weeks. This approach is well described elsewhere.^9
Tumor-bearing mice were injected with either 150 nM TPT, 100 nM SID 88095709 (probe resupply), or 500 nM SID 85752814 (original SMR hit).
Igrov1/T8 cells were injected into the hind limbs of CB-17 SCID mice at a concentration of 1×10^7 cells in 200 μL, n of 3 per condition. The tumor was grown until the volume was in the range of 75 mm^3 to 250 mm^3. […] Injections were repeated daily and the size of the tumor was determined as a fraction of the starting size. After four days the mice were sacrificed and any recurring tumor was verified by light microscopy examination of histological sections. Mice were studied and maintained in accordance with guidelines of our Institutional Animal Research Committee at UNM HSC.

[5] = molecular target: 50 kinases; test: Kinase profiling (KinaseSeeker, split-luciferase); type: biochemical; conditions: 10 μM
Description: Since ABC transporters are ATP dependent efflux pumps and several kinase targets have been implicated in the patent literature with structurally similar scaffolds, SID 88095709 was profiled against 50 kinasesat a single concentration of 10 μM to assess promiscuity of the chemotype.^66 SID 88095709 was dissolved in DMSO and tested at a final concentration of 10 μM. Prior to initiating a profiling campaign, the compound was evaluated for false positive against split-luciferase. Profiling was done in duplicate for SID 88095709 against each kinase. The Percent Inhibition and Percent Activity Remaining arecalculated using the following equation: % Inhibition=ALUControl−ALUSample×100 ALUControl % Activity Remaining=100−% Inhibition The team has also submitted SID 88095709 and the analog SID 97301789 to the NIH National Cancer Institute to elucidate the effect of SID 88095709 on the cancer cell line panel. Discussion

O=C(c1ccoc1)N1CCN(c2cc(-c3ccco3)nc3cc(-c4ccccc4)nn23)CC1 [Compound 1, (4-(5-(furan-2-yl)-2-phenylpyrazolo[1,5-a]pyrimidin-7-yl)piperazin-1-yl)(furan-3-yl)methanone]
EC50 [1]: 130 nM | IC50 [1]: 130 ± 300 nM | fold higher potency in ABCG2 than the prior art Ko143 ([1]; JC-1 efflux reporter system): approximately 100 fold | ~Fold G2 Selective (B1/G2) ([1]; quotient of average ABCB1 IC50 and average ABCG2 IC50, efflux assay): 35.8 fold | selectivity ratio at 30 min [2]: 36 | EC50 [3]: 550 nM | tumor size, combination of TPT and inhibitor [4]: dramatically reduced tumor size; also recorded: Significant tumor reduction | tumor size, combination of TPT and inhibitor ([4]; listed as SID 88095709): dramatically reduced tumor size | tumor size, single agent ([4]; 150 nM TPT, 100 nM SID 88095709 or 500 nM SID 85752814 alone): remained the same or increased | tumor size, inhibitor alone ([4]; inhibitor alone (100 nM or 500 nM as printed), Example 3): No reduction in size | kinase inhibition profile [5]: appears to not be a kinase inhibitor

Source: patent US9056111B1, “Selective efflux inhibitors and related pharmaceutical compositions and methods of treatment” (STC.UNM, priority 2011, dated 2015)
